In data set [1] the test system is Jurkat. As to the kind of experiment: Viability test on Jurkat cells. It is filed as cell-based, human. The method, then: (§1) JURKAT and CCRF-CEM (T-cell acute lymphoblastic leukemia), HL60 and K562 representing acute and chronic myeloid leukemia, respectively, the chronic lymphocytic leukemia cell line MEC-1, and the diffuse large B-cell lymphoma cell line U-2940 were cultured in Gibco RPMI 1640+GlutaMAX (Life Technologies, Carlsbad, Calif., USA) supplemented with 10% fetal bovine serum gold (FBS gold; PAA Laboratories, Pasching, Austria) and 1% PenStrep (100 U/ml penicillin and 100 μg/ml streptomycin; PAA Laboratories), and maintained at 37° C. in humidified atmosphere with 5% CO2. […]
(§2) All experiments with hematological cell lines were done using phenol red-free RPMI 1640+L-glutamine (PAA Laboratories) supplemented with 1% PenStrep and 10% FBS gold, except experiments with OCI-Ly7 which were carried out in Gibco IMEM+GlutaMAX and 25 mM HEPES containing 20% FBS gold and 1% PenStrep. Cells were incubated in triplicates with increasing concentrations of the compounds for 48 h, changes in viability were determined using the cell proliferation and cytotoxicity assays EZ4U (Biomedica Group, Austria) and CellTiter-Blue Cell Viability Assay (Promega, Madison, Wis., USA) following instructions of the manufacturers. IC50 values were calculated from two independent experiments using GraphPad Prism 5 software. […]

Data set [2] relates to U-2940. As to the kind of experiment: Viability test on U-2940 cells, 48 h. Conditions: 48 h incubation; nd = no significant cytotoxic activity up to 100 μM. It is filed as cell-based, human. As to the method: JURKAT and CCRF-CEM (T-cell acute lymphoblastic leukemia), HL60 and K562 representing acute and chronic myeloid leukemia, respectively, the chronic lymphocytic leukemia cell line MEC-1, and the diffuse large B-cell lymphoma cell line U-2940 were cultured in Gibco RPMI 1640+GlutaMAX (Life Technologies, Carlsbad, Calif., USA) supplemented with 10% fetal bovine serum gold (FBS gold; PAA Laboratories, Pasching, Austria) and 1% PenStrep (100 U/ml penicillin and 100 μg/ml streptomycin; PAA Laboratories), and maintained at 37° C. in humidified atmosphere with 5% CO2. The diffuse large B-cell lymphoma cell line OCI-LY7 was cultured in Gibco IMDM+GlutaMAX and 25 mM HEPES (Life Technologies) containing 20% FBS gold and 1% PenStrep.
All experiments with hematological cell lines were done using phenol red-free RPMI 1640+L-glutamine (PAA Laboratories) supplemented with 1% PenStrep and 10% FBS gold, except experiments with OCI-Ly7 which were carried out in Gibco IMEM+GlutaMAX and 25 mM HEPES containing 20% FBS gold and 1% PenStrep. Cells were incubated in triplicates with increasing concentrations of the compounds for 48 h, changes in viability were determined using the cell proliferation and cytotoxicity assays EZ4U (Biomedica Group, Austria) and CellTiter-Blue Cell Viability Assay (Promega, Madison, Wis., USA) following instructions of the manufacturers. IC50 values were calculated from two independent experiments using GraphPad Prism 5 software.
Initially, compounds were biologically tested in six concentration steps (0.1 μM; 1 μM; 5 μM; 10 μM; 50 μM; and 100 μM) using the CellTiter-Blue Cell Viability Assay (Promega, Madison, Wis., USA) and an incubation time of 48 hours. […] IC50 values were calculated from at least two independent experiments with 3 replicates each. In order to evaluate the biologic activity of the new compounds, cytotoxicity was compared to that of fludarabine, an already approved drug for the treatment of various B-cell malignancies. […] Differences in IC50 values for the different cell types can be explained by the biological and genetic particularities of each subtype of B-cell Non-Hodgkin lymphoma (Stacchini A et al. Leukemia Res 1999, 23, 127-136; Sambade C et al. Int J Cancer 2006, 118, 555-563; Chang H et al. Leukemia lymphoma 1995, 19, 165-171; Tweeddale M E et al. Blood 1987, 69, 1307-1314; Tweeddale M et al. Blood 1989, 74, 572-578).

The subject of data set [3] is PBMC of CLL patients cultured over a layer of mouse fibroblast cells (M2-10B4). As to the kind of experiment: Viability of CLL cells in co-culture with M2-10B4 fibroblast cells. It is filed as cell-based. Conditions: Homo sapiens, M210B4, 48 h. As to the method: Primary cells were incubated at a density of 300,000 cells per well in 96-well plates in a total volume of 100 μl of Gibco RPMI 1640+L-glutamine (PAA Laboratories) supplemented with 20% FBS gold with increasing concentrations of compounds for 48 h. For co-culture experiments, 150,000 M2-10B4 mouse fibroblast cells were seeded into 12-well plates and allowed to form a confluent layer over night. Supernatant was replaced by 3 million primary cells in a total volume of 1 ml medium and incubated with increasing concentrations of compounds for 48 h. Viability was measured using CellTiter-Blue Cell Viability Assay (Promega, Madison, Wis., USA) following the instructions of the manufacturers. Experiments with primary cells were done in triplicates, IC50 values were calculated from the mean values of all samples used in the various experiments using GraphPad Prism 5 software.
As a last step, it has been sought to evaluate the cytotoxicity of compound 15 in primary cells and compare its activity to the impact of fludarabine. To this end, peripheral blood mononuclear cells (PBMC) of chronic lymphocytic leukemia (CLL) patients were used in two experimental settings. They were cultured in conventional suspension culture being exposed to increasing concentrations of drug. […]

Data set [4] has as its system PBMC of healthy individuals. The data set can be described thus: Viability of healthy donor cells in suspension culture. It is filed as cell-based. Conditions: Homo sapiens, 48 h, read-out: IC50 HD Suspension. The text has this: Hematological cell lines were acquired from the Leibniz Institute DSMZ-German Collection of Microorganisms and Cell Cultures (www.dsmz.de). Sixteen patients diagnosed with chronic lymphocytic leukemia at the Division of Hematology and Hemostaseology at the Vienna General Hospital and four healthy donors were included in the study. All participants signed informed consent according to the Declaration of Helsinki (Ethics Committee Nr: EK 1722/2012). Peripheral blood mononuclear cells (PBMC) were isolated using standardized Ficoll-Hypaque gradient centrifugation (Seromed, Berlin, Germany) and stored in liquid nitrogen until use. […]
Primary cells were incubated at a density of 300,000 cells per well in 96-well plates in a total volume of 100 μl of Gibco RPMI 1640+L-glutamine (PAA Laboratories) supplemented with 20% FBS gold with increasing concentrations of compounds for 48 h. […] Viability was measured using CellTiter-Blue Cell Viability Assay (Promega, Madison, Wis., USA) following the instructions of the manufacturers. Experiments with primary cells were done in triplicates, IC50 values were calculated from the mean values of all samples used in the various experiments using GraphPad Prism 5 software. […]

Data set [5] has as its system K562. As to the kind of experiment: Viability test on K562 cells. It is filed as cell-based, human. Conditions: already at low concentrations, no further increase of toxicity at increasing concentrations. As to the method: as §1, §2
The test system of data set [6] is CCRF. The data set can be described thus: Viability test on CCRF cells. It is filed as cell-based, human. The method, then: as §1, §2
Setting [7] is: Homo sapiens, T-cell acute leukemia, nd = no significant cytotoxic activity up to 100 μM.

The structures appear in SMILES notation. Several values for one entry are separate records, joined by “and”; a condition that tells them apart may be missing. Identical values can stand only once.

Compound `CCOc1ccccc1C(=O)/C=C/c1cc2ccccc2[nH]1` [Compound 15, 1-(2-Ethoxyphenyl)-3-(1H-indole-2-yl)-2-propen-1-one] returned a melting point of 124 to 126 °C. In data set [1] (setting [7]), this compound showed an IC50 of 40 nM. The “viability, % of control” value in data set [1] (at concentrations <1 μM) is on record as “less than 30 % of control”. The IC50 in data set [2] is 50 nM and 52 nM. In data set [3], this compound registered a concentration for half-maximal inhibition (IC50) of 680 nM. Besides, in data set [4], the half-maximal inhibitory concentration (IC50) amounted to 13600 nM. For the same compound, the “viability reduced down to” value in data set [5] came out at 60%. The “viability, % of control” value in data set [6] (CCRF, at concentrations <1 μM) is given as “less than 30 % of control”. Also, the half-inhibitory concentration (IC50) in data set [6] (setting [7]) came out at 30 nM.

For orientation: IC50 means the concentration that gives 50% inhibition. As usually defined, the melting point is the temperature of the solid-liquid transition.

The record behind these values is patent publication US10280156B2, “Heteroaromatic chalcone derivatives and their medical use” (Medizinische Universität Wien, priority 2014, dated 2019).
